Several values for one entry are separate records, joined by “and”; a condition that tells them apart may be missing. Equal values may be shown once.
Test system: Swiss mice, Sarcoma 180 sc, mean tumor weight T/C
Assay: NCI In Vivo Anticancer Drug Screen. Data for tumor model Sarcoma 180 (subcutaneous) in Swiss mice
Settings: endpoint: mean tumor weight, higher = larger tumour
Method in brief: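 Antitumor activity is assessed in mice with transplantable tumors. Treated (T) and vehicle control (C) groups are compared on survival or tumor size.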

[1] = dose: 25.0 mg/kg/injection, schedule: Q01DX007 (ip), vehicle: carboxymethylcellulose (CMC)
[2] = dose: 50.0 mg/kg/injection, schedule: Q01DX007 (ip), vehicle: carboxymethylcellulose (CMC)

COc1ccc2[nH]c3c(C)c4ccncc4c(C)c3c2c1
T/C (dose: 6.2 mg/kg/injection, schedule: Q01DX007 (ip), vehicle: carboxymethylcellulose (CMC)): 81 % of control
T/C (dose: 12.5 mg/kg/injection, schedule: Q01DX007 (ip), vehicle: carboxymethylcellulose (CMC)): 77 % of control
T/C [1]: 33 % of control
T/C (dose: 27.0 mg/kg/injection, schedule: Q01DX007 (ip), vehicle: saline): 72 % of control
T/C (dose: 40.0 mg/kg/injection, schedule: Q01DX007 (ip), vehicle: saline): 88 % of control
T/C [2]: 27 % of control
T/C (dose: 50.0 mg/kg/injection, schedule: Q01DX007 (ip), vehicle: steriod suspending solution): 97 % of control
T/C (dose: 60.0 mg/kg/injection, schedule: Q01DX007 (ip), vehicle: saline): 50 % of control
T/C (dose: 75.0 mg/kg/injection, schedule: Q01DX007 (ip), vehicle: carboxymethylcellulose (CMC)): 25 % of control
T/C (dose: 75.0 mg/kg/injection, schedule: Q01DX007 (ip), vehicle: steriod suspending solution): 46 % of control
T/C (dose: 90.0 mg/kg/injection, schedule: Q01DX007 (ip), vehicle: saline): 24 % of control
T/C (dose: 150.0 mg/kg/injection, schedule: Q01DX007 (ip), vehicle: carboxymethylcellulose (CMC)): 19 % of control
T/C (dose: 150.0 mg/kg/injection, schedule: Q01DX007 (ip), vehicle: steriod suspending solution): 31 % of control

CCOc1ccc2nc(S(N)(=O)=O)sc2c1
T/C [1]: 78 % of control
T/C (dose: 29.0 mg/kg/injection, schedule: Q01DX007 (ip), vehicle: carboxymethylcellulose (CMC)): 70 % of control
T/C (dose: 44.0 mg/kg/injection, schedule: Q01DX007 (ip), vehicle: carboxymethylcellulose (CMC)): 22 % of control
T/C (dose: 49.5 mg/kg/injection, schedule: Q#A X014 (ip), vehicle: methylcellulose (MC)): 29 % of control and 48 % of control
T/C [2]: 39 % of control
T/C (dose: 66.0 mg/kg/injection, schedule: Q01DX007 (ip), vehicle: carboxymethylcellulose (CMC)): 51 % of control
T/C (dose: 74.0 mg/kg/injection, schedule: Q#A X014 (ip), vehicle: methylcellulose (MC)): 13 % of control and 22 % of control
T/C (dose: 99.0 mg/kg/injection, schedule: Q01DX007 (ip), vehicle: carboxymethylcellulose (CMC)): 43 % of control
T/C (dose: 100.0 mg/kg/injection, schedule: Q01DX007 (ip), vehicle: carboxymethylcellulose (CMC)): 34 % of control

Clc1ccc2c(c1)C(Br)c1cc(Cl)cc(Cl)c1-2 (stereo unspecified)
T/C (dose: 222.0 mg/kg/injection, schedule: Q01DX007 (ip), vehicle: other): 66 % of control
T/C (dose: 222.0 mg/kg/injection, schedule: Q01DX007 (ip), vehicle: saline): 67 % of control
T/C (dose: 333.0 mg/kg/injection, schedule: Q01DX007 (ip), vehicle: other): 27 % of control
T/C (dose: 333.0 mg/kg/injection, schedule: Q01DX007 (ip), vehicle: saline): 32 % of control
T/C (dose: 500.0 mg/kg/injection, schedule: Q01DX007 (ip), vehicle: other): 30 % of control
T/C (dose: 750.0 mg/kg/injection, schedule: Q01DX007 (ip), vehicle: other): 21 % of control

CCCCNP(=O)(N1CC1C)N1CC1C (stereo unspecified)
T/C (dose: 7.0 mg/kg/injection, schedule: Q#A X014 (ip), vehicle: saline): 64 % of control
T/C (dose: 10.5 mg/kg/injection, schedule: Q#A X014 (ip), vehicle: saline): 62 % of control
T/C (dose: 15.5 mg/kg/injection, schedule: Q#A X014 (ip), vehicle: saline): 50 % of control
T/C (dose: 23.5 mg/kg/injection, schedule: Q#A X014 (ip), vehicle: saline): 39 % of control

Cc1ccc(N=NN(C)C)cc1
T/C (dose: 9.8 mg/kg/injection, schedule: Q01DX007 (ip), vehicle: carboxymethylcellulose (CMC)): 86 % of control
T/C (dose: 14.8 mg/kg/injection, schedule: Q01DX007 (ip), vehicle: carboxymethylcellulose (CMC)): 70 % of control
T/C (dose: 15.0 mg/kg/injection, schedule: Q01DX007 (ip), vehicle: carboxymethylcellulose (CMC)): 62 % of control
T/C (dose: 16.65 mg/kg/injection, schedule: Q#A X014 (ip), vehicle: carboxymethylcellulose (CMC)): 45 % of control
T/C (dose: 22.2 mg/kg/injection, schedule: Q01DX007 (ip), vehicle: carboxymethylcellulose (CMC)): 49 % of control
T/C (dose: 25.0 mg/kg/injection, schedule: Q#A X014 (ip), vehicle: carboxymethylcellulose (CMC)): 43 % of control
T/C (dose: 33.3 mg/kg/injection, schedule: Q01DX007 (ip), vehicle: carboxymethylcellulose (CMC)): 60 % of control
T/C (dose: 37.5 mg/kg/injection, schedule: Q#A X014 (ip), vehicle: carboxymethylcellulose (CMC)): 30 % of control
T/C (dose: 56.0 mg/kg/injection, schedule: Q#A X014 (ip), vehicle: carboxymethylcellulose (CMC)): 14 % of control
T/C (dose: 56.25 mg/kg/injection, schedule: Q#A X014 (ip), vehicle: methylcellulose (MC)): 36 % of control and 38 % of control
T/C (dose: 115.0 mg/kg/injection, schedule: Q01DX007 (ip), vehicle: carboxymethylcellulose (CMC)): 34 % of control

COc1ccc2c(c1)CC[C@@H]1[C@@H]2CC[C@]2(C)C=CC[C@@H]12
T/C (dose: 2.5 mg/kg/injection, schedule: Q01DX007 (sc), vehicle: steriod suspending solution): 104 % of control
T/C (dose: 5.0 mg/kg/injection, schedule: Q01DX007 (sc), vehicle: steriod suspending solution): 91 % of control
T/C (dose: 10.0 mg/kg/injection, schedule: Q01DX007 (sc), vehicle: steriod suspending solution): 75 % of control

CC(CN)CCC(C)(O)C(N)=O (stereo unspecified)
T/C (dose: 83.0 mg/kg/injection, schedule: Q#A X014 (ip), vehicle: methylcellulose (MC)): 63 % of control
T/C (dose: 125.0 mg/kg/injection, schedule: Q#A X014 (ip), vehicle: methylcellulose (MC)): 49 % of control
T/C (dose: 187.5 mg/kg/injection, schedule: Q#A X014 (ip), vehicle: methylcellulose (MC)): 47 % of control

COC1=C(N(C)C)C(=O)c2ncccc2C1=O
T/C (dose: 12.5 mg/kg/injection, schedule: Q01DX007 (ip), vehicle: water): 86 % of control
T/C (dose: 25.0 mg/kg/injection, schedule: Q01DX007 (ip), vehicle: water): 72 % of control
T/C (dose: 50.0 mg/kg/injection, schedule: Q01DX007 (ip), vehicle: water): 92 % of control

NNC(=O)c1ccncc1
T/C (dose: 7.5 mg/kg/injection, schedule: Q#A X014 (ip), vehicle: carboxymethylcellulose (CMC)): 112 % of control
T/C (dose: 15.0 mg/kg/injection, schedule: Q#A X014 (ip), vehicle: carboxymethylcellulose (CMC)): 105 % of control
T/C (dose: 30.0 mg/kg/injection, schedule: Q#A X014 (ip), vehicle: carboxymethylcellulose (CMC)): 101 % of control
T/C (dose: 60.0 mg/kg/injection, schedule: Q#A X014 (ip), vehicle: carboxymethylcellulose (CMC)): 74 % of control

CN=C(N)/N=C(\N)Nc1cc2ccccc2c2ccccc12
T/C (dose: 1.0 mg/kg/injection, schedule: Q01DX007 (ip), vehicle: acid diluted with saline): 89 % of control
T/C (dose: 2.0 mg/kg/injection, schedule: Q01DX007 (ip), vehicle: acid diluted with saline): 93 % of control
T/C (dose: 4.0 mg/kg/injection, schedule: Q01DX007 (ip), vehicle: acid diluted with saline): 92 % of control

N#CCOC(=O)CCC(NC(=O)OCc1ccccc1)C(N)=O (stereo unspecified)
T/C [2]: 94 % of control

COC1C(O)CC(=O)OC(C)C/C=C/C=C/C(OC2CCC(N(C)C)C(C)O2)C(C)CC(CC=O)C1OC1OC(C)C(OC2CC(C)(O)C(O)C(C)O2)C(N(C)C)C1O (stereo unspecified)
T/C (dose: 44.0 mg/kg/injection, schedule: Q01DX007 (ip), vehicle: water): 124 % of control
T/C (dose: 66.0 mg/kg/injection, schedule: Q01DX007 (ip), vehicle: water): 85 % of control
T/C (dose: 100.0 mg/kg/injection, schedule: Q01DX007 (ip), vehicle: water): 123 % of control
T/C (dose: 150.0 mg/kg/injection, schedule: Q01DX007 (ip), vehicle: water): 95 % of control
T/C (dose: 225.0 mg/kg/injection, schedule: Q01DX007 (ip), vehicle: water): 110 % of control
T/C (dose: 337.0 mg/kg/injection, schedule: Q01DX007 (ip), vehicle: water): 72 % of control

CCCCSc1nc(N)nc2nc[nH]c12
T/C (dose: 18.75 mg/kg/injection, schedule: Q#A X014 (ip), vehicle: methylcellulose (MC)): 89 % of control
T/C (dose: 37.5 mg/kg/injection, schedule: Q#A X014 (ip), vehicle: methylcellulose (MC)): 78 % of control
T/C (dose: 75.0 mg/kg/injection, schedule: Q#A X014 (ip), vehicle: methylcellulose (MC)): 102 % of control
T/C (dose: 150.0 mg/kg/injection, schedule: Q#A X014 (ip), vehicle: methylcellulose (MC)): 59 % of control

O=S(c1ccc(Cl)cc1)c1ccc(Cl)cc1
T/C (dose: 250.0 mg/kg/injection, schedule: Q01DX007 (ip), vehicle: carboxymethylcellulose (CMC)): 105 % of control
T/C (dose: 500.0 mg/kg/injection, schedule: Q01DX007 (ip), vehicle: carboxymethylcellulose (CMC)): 96 % of control

S=P(N1CCCCC1)(N1CC1)N1CC1
T/C (dose: 55.0 mg/kg/injection, schedule: Q01DX007 (ip), vehicle: saline): 26 % of control
T/C (dose: 84.0 mg/kg/injection, schedule: Q01DX007 (ip), vehicle: saline): 26 % of control
T/C (dose: 125.0 mg/kg/injection, schedule: Q01DX007 (ip), vehicle: saline): 14 % of control
T/C (dose: 188.0 mg/kg/injection, schedule: Q01DX007 (ip), vehicle: saline): 8 % of control
